# Test results taken from patent publication US20230203003A1, “Notch Inhibitors and Uses Thereof” (StemSynergy Therapeutics, Inc., priority 2020, published 2023).
# Counter-ions that a name gives are not always drawn.
# Molecular target: T1, hNotch1ICD (Homo sapiens, UniProt P46531)
# T1 construct: pLV[Tet]-Puro-TRE3G>Notch1-ICD; expressed in transfected cells; host or cells: 293A cells
# Assay: Notch1 Reporter Assay (Dox-inducible Notch1-ICD, CSL-responsive luciferase in 293A cells)
# Assay type: cell-based
# Conditions: 293A cells, 24 h, luciferase normalized to cell viability; read-out: Notch1 Reporter Assay IC50
# Protocol: 293A cells expressing 1) pCMV-Tet-On 3G, 2) pLV[Tet]-Puro-TRE3G>Notch1-ICD, 3) pLV[Tet]-Puro-TRE3G>Notch2-ICD, 4) pLV[Tet]-Puro-TRE3G>Notch3-ICD, and 5) pCSL-RElement-Luc were used. When Doxycycline is added, the Tet-ON gene activates expression of hNotch1ICD, which together with endogenous NTC components binds to CSL responsive elements (pCSL-RElement-Luc) and expresses luciferase. 1 ×× 10^4 cells are plated in 100 µL (96-well format). 24 h later, compounds (10 mM stock in DMSO) are diluted in DMSO to 200X, then added (5 ul into 1 mL) to cell culture media containing 50 ng/mL Dox. This is then added 1:1 to cells. Final DMSO = 0.25%, Dox = 25 ng/mL. After 24 h, media is discarded, and cells are lysed in passive lysis buffer (Promega). Cells are rocked at room temperature for 15 min and then lysate is divided for luciferase assay (Luciferase Assay System, Promega) and cell viability (CellTiter Glo 2.0, Promega). Raw luciferase is normalized to cell viability, and then scaled to DMSO wells. Results are analyzed and IC50′s are determined in GraphPad by nonlinear regression curve fitting (4 parameter) of dose response curves.
# T1 sequence (P46531 1754-2555 limits assumed): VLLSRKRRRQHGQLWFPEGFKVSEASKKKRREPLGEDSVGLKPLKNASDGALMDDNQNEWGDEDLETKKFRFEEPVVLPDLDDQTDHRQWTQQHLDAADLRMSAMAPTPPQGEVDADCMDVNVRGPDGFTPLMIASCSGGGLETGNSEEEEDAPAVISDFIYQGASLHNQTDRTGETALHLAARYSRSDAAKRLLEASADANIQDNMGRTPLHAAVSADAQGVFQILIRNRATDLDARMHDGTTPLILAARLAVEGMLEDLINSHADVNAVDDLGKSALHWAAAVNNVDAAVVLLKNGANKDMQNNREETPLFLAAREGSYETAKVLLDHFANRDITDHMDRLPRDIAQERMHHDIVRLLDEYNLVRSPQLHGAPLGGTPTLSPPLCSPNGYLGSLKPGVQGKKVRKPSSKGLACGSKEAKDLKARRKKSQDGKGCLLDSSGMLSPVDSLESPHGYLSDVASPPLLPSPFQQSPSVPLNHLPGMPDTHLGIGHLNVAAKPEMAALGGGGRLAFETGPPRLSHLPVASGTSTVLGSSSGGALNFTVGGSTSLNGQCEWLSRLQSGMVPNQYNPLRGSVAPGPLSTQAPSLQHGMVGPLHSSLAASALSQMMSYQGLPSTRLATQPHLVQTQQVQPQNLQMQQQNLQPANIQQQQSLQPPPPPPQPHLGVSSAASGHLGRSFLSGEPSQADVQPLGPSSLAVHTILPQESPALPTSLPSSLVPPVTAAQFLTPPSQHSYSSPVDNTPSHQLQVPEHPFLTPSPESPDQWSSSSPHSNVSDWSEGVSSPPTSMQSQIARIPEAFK
row,Structure (SMILES),IC50
1,CC(C)Cn1c(=O)c(C(=O)Nc2ccc(N3CCN(C)CC3)cc2)c(O)c2ccccc21 [569(01)],8.4 µM
2,CC(C)Cn1c(=O)c(C(=O)Nc2ccc(F)cc2N2CCN(C)CC2)c(O)c2ccccc21 [570(01)],6.5 µM
3,CC(C)Cn1c(=O)c(C(=O)Nc2cccc(F)c2)c(O)c2cc(N3CCN(C)CC3)ccc21 [577(01)],9.7 µM
4,Cc1cccnc1NC(=O)c1c(O)c2cc(N3CCN(C)CC3)ccc2n(CC(C)C)c1=O [579(01)],18.4 µM
5,Cc1cccnc1NC(=O)c1c(O)c2ccc(N3CCN(C)CC3)cc2n(CC(C)C)c1=O [580(01)],13.3 µM
6,Cc1cccnc1NC(=O)c1c(O)c2ccc(N3CCN(C)CC3)cc2n(CC(C)C)c1=O [580(02)],14 µM
7,CC(C)Cn1c(=O)c(C(=O)Nc2cccc(F)c2N2CCN(C)CC2)c(O)c2ccccc21 [581(01)],7.8 µM
8,CC(C)Cn1c(=O)c(C(=O)Nc2cccc(F)c2N2CCN(C)CC2)c(O)c2ccccc21 [581(02)],7.7 µM
9,CC(C)Cn1c(=O)c(C(=O)Nc2cc(F)cc(N3CCN(C)CC3)c2)c(O)c2ccccc21 [583(01)],8.1 µM
10,CC(C)Cn1c(=O)c(C(=O)Nc2cc(F)cc(N3CCN(C)CC3)c2)c(O)c2ccccc21 [583(02)],6.3 µM
11,CC(C)Cn1c(=O)c(C(=O)Nc2ccc(F)c(N3CCN(C)CC3)c2)c(O)c2ccccc21 [584(01)],4.5 µM
12,CC(C)Cn1c(=O)c(C(=O)Nc2cccc(F)c2)c(O)c2c(N3CCN(C)CC3)cccc21 [588(01)],10.3 µM
13,CC(C)Cn1c(=O)c(C(=O)Nc2cccc(F)c2)c(O)c2c(N3CCN(C)CC3)cccc21 [588(02)],9.8 µM
14,O=C(Nc1ccccc1)c1c(O)c2c(n(Cc3ccco3)c1=O)CCCC2 [SSTN-379],27.5 µM
15,CCCn1c2c(c(O)c(C(=O)Nc3ccccn3)c1=O)CCCC2 [SSTN-401],21.6 µM
16,O=C(Nc1ncccc1O)c1c(O)c2c([nH]c1=O)CCCC2 [SSTN-402],12.1 µM
17,Cc1ccnc(NC(=O)c2c(O)c3ccccc3n(Cc3ccccc3)c2=O)c1 [SSTN-410],21.9 µM
18,O=C(Nc1ccc(F)cc1)c1c(O)c2cccnc2n(-c2ccccc2)c1=O [SSTN-443],9 µM
19,"CC(C)Cn1c(=O)c(C(=O)Nc2cccc(F)c2)c(O)c2ccc(Br)cc21 [SSTN-567, 7-bromo-N-(3-fluorophenyl)-4-hydroxy-1-isobutyl-2-oxo-1,2-dihydroquinoline-3-carboxamide]",33.2 µM

# Same assay, conditions: value printed in the synthesis heading of the compound; read-out: Notch1 Reporter Assay IC50
row,Structure (SMILES),IC50
1,"CC(C)Cn1c(=O)c(C(=O)Nc2ccccc2N2CCN(C)CC2)c(O)c2ccccc21 [SSTN-568, 4-hydroxy-1-isobutyl-N-(2-(4-methylpiperazin-1-yl)phenyl)-2-oxo-1,2-dihydroquinoline-3-carboxamide]",21.5 µM
2,"CC(C)Cn1c(=O)c(C(=O)Nc2ccccc2N2CCN(C)CC2)c(O)c2ccccc21 [SSTN-568_HCl salt, 4-hydroxy-1-isobutyl-N-(2-(4-methylpiperazin-1-yl)phenyl)-2-oxo-1,2-dihydroquinoline-3-carboxamide hydrochloride salt]",6.83 µM
3,"CC(C)Cn1c(=O)c(C(=O)Nc2ccc(N3CCN(C)CC3)cc2)c(O)c2ccccc21 [SSTN-569, 4-hydroxy-1-isobutyl-N-(4-(4-methylpiperazin-1-yl)phenyl)-2-oxo-1,2-dihydroquinoline-3-carboxamide]",8.42 µM
4,"CC(C)Cn1c(=O)c(C(=O)Nc2ccc(N3CCN(C)CC3)cc2)c(O)c2ccccc21 [SSTN-569_HCl salt, 4-hydroxy-1-isobutyl-N-(4-(4-methylpiperazin-1-yl)phenyl)-2-oxo-1,2-dihydroquinoline-3-carboxamide hydrochloride salt]",4.93 µM
5,"CC(C)Cn1c(=O)c(C(=O)Nc2ccc(F)cc2N2CCN(C)CC2)c(O)c2ccccc21 [SSTN-570, N-(4-fluoro-2-(4-methylpiperazin-1-yl)phenyl)-4-hydroxy-1-isobutyl-2-oxo-1,2-dihydroquinoline-3-carboxamide]",6.5 µM
6,"CC(C)Cn1c(=O)c(C(=O)Nc2ccc(F)cc2N2CCN(C)CC2)c(O)c2ccccc21 [SSTN-570_HCl salt, N-(4-fluoro-2-(4-methylpiperazin-1-yl)phenyl)-4-hydroxy-1-isobutyl-2-oxo-1,2-dihydroquinoline-3-carboxamide hydrochloride salt]",5.6 µM
7,"CC(C)Cn1c(=O)c(C(=O)Nc2cc(F)ccc2N2CCN(C)CC2)c(O)c2ccccc21 [SSTN-571_HCl salt, N-(5-fluoro-2-(4-methylpiperazin-1-yl)phenyl)-4-hydroxy-1-isobutyl-2-oxo-1,2-dihydroquinoline-3-carboxamide hydrochloride salt]",7.87 µM
8,"CC(C)Cn1c(=O)c(C(=O)Nc2ccc(N3CCN(C)CC3)c(F)c2)c(O)c2ccccc21 [SSTN-572, N-(3-fluoro-4-(4-methylpiperazin-1-yl)phenyl)-4-hydroxy-1-isobutyl-2-oxo-1,2-dihydroquinoline-3-carboxamide]",17.7 µM
9,"CC(C)Cn1c(=O)c(C(=O)Nc2ccc(N3CCN(C)CC3)c(F)c2)c(O)c2ccccc21 [SSTN-572_HCl salt, N-(3-fluoro-4-(4-methylpiperazin-1-yl)phenyl)-4-hydroxy-1-isobutyl-2-oxo-1,2-dihydroquinoline-3-carboxamide hydrochloride salt]",3.4 µM
10,"CC(C)Cn1c(=O)c(C(=O)Nc2cccc(F)c2)c(O)c2cc(N3CCN(C)CC3)ccc21 [SSTN-577, N-(3-fluorophenyl)-4-hydroxy-1-isobutyl-6-(4-methylpiperazin-1-yl)-2-oxo-1,2-dihydroquinoline-3-carboxamide]",9.69 µM
11,"CC(C)Cn1c(=O)c(C(=O)Nc2cccc(F)c2)c(O)c2cc(N3CCN(C)CC3)ccc21 [SSTN-577_HCl salt, N-(3-fluorophenyl)-4-hydroxy-1-isobutyl-6-(4-methylpiperazin-1-yl)-2-oxo-1,2-dihydroquinoline-3-carboxamide hydrochloride salt]",6.44 µM
12,"Cc1cccnc1NC(=O)c1c(O)c2cc(N3CCN(C)CC3)ccc2n(CC(C)C)c1=O [SSTN-579, 4-hydroxy-1-isobutyl-6-(4-methylpiperazin-1-yl)-N-(3-methylpyridin-2-yl)-2-oxo-1,2-dihydroquinoline-3-carboxamide]",18.4 µM
13,"Cc1cccnc1NC(=O)c1c(O)c2ccc(N3CCN(C)CC3)cc2n(CC(C)C)c1=O [SSTN-580_HCl salt, 4-hydroxy-1-isobutyl-7-(4-methylpiperazin-1-yl)-N-(3-methylpyridin-2-yl)-2-oxo-1,2-dihydroquinoline-3-carboxamide hydrochloride salt]",14 µM
14,"Cc1cccnc1NC(=O)c1c(O)c2ccc(N3CCN(C)CC3)cc2n(CC(C)C)c1=O [SSTN-580_TFA salt, 4-hydroxy-1-isobutyl-7-(4-methylpiperazin-1-yl)-N-(3-methylpyridin-2-yl)-2-oxo-1,2-dihydroquinoline-3-carboxamide TFA salt]",13.3 µM
15,"CC(C)Cn1c(=O)c(C(=O)Nc2cccc(F)c2N2CCN(C)CC2)c(O)c2ccccc21 [SSTN-581_Formate salt, N-(3-fluoro-2-(4-methylpiperazin-1-yl)phenyl)-4-hydroxy-1-isobutyl-2-oxo-1,2-dihydroquinoline-3-carboxamide formate salt]",7.76 µM
16,"CC(C)Cn1c(=O)c(C(=O)Nc2cccc(F)c2N2CCN(C)CC2)c(O)c2ccccc21 [SSTN-581_HCl salt, N-(3-fluoro-2-(4-methylpiperazin-1-yl)phenyl)-4-hydroxy-1-isobutyl-2-oxo-1,2-dihydroquinoline-3-carboxamide hydrochloride salt]",7.68 µM
17,"CC(C)Cn1c(=O)c(C(=O)Nc2cc(F)c(N3CCN(C)CC3)c(F)c2)c(O)c2ccccc21 [SSTN-582_HCl salt, N-(3,5-difluoro-4-(4-methylpiperazin-1-yl)phenyl)-4-hydroxy-1-isobutyl-2-oxo-1,2-dihydroquinoline-3-carboxamide hydrochloride salt]",1.9 µM
18,"CC(C)Cn1c(=O)c(C(=O)Nc2cc(F)cc(N3CCN(C)CC3)c2)c(O)c2ccccc21 [SSTN-583, N-(3-fluoro-5-(4-methylpiperazin-1-yl)phenyl)-4-hydroxy-1-isobutyl-2-oxo-1,2-dihydroquinoline-3-carboxamide]",8.13 µM
19,"CC(C)Cn1c(=O)c(C(=O)Nc2cc(F)cc(N3CCN(C)CC3)c2)c(O)c2ccccc21 [SSTN-583_HCl salt, N-(3-fluoro-5-(4-methylpiperazin-1-yl)phenyl)-4-hydroxy-1-isobutyl-2-oxo-1,2-dihydroquinoline-3-carboxamide hydrochloride salt]",6.33 µM
20,"CC(C)Cn1c(=O)c(C(=O)Nc2ccc(F)c(N3CCN(C)CC3)c2)c(O)c2ccccc21 [SSTN-584_Formate salt, N-(4-fluoro-3-(4-methylpiperazin-1-yl)phenyl)-4-hydroxy-1-isobutyl-2-oxo-1,2-dihydroquinoline-3-carboxamide formate salt]",4.54 µM
21,"CC(C)Cn1c(=O)c(C(=O)Nc2ccc(F)c(N3CCN(C)CC3)c2)c(O)c2ccccc21 [SSTN-584_HCl salt, N-(4-fluoro-3-(4-methylpiperazin-1-yl)phenyl)-4-hydroxy-1-isobutyl-2-oxo-1,2-dihydroquinoline-3-carboxamide hydrochloride salt]",6.04 µM
